Columns and labels:
[1] = test system: Salmonella typhimurium TA100 and TA98, and Escherichia coli WP2 uvrA strains; experiment: Miniscreen method, bacterial reverse mutation, with and without metabolic activation; assay type: cell-based; conditions: 10-1,000 μg/well; with and without Rat Liver S9mix; positive = revertant colonies twice or more of control
Experimental: (4) Miniscreen Method for Examining Presence of Genetic Toxicity:
Reverse mutation-inducing activity of the test comounds on bacteira was examined by Miniscreen method (Environ. Mol. Mutagen., 35, 72-77). Salmonella typhimurium TA100 and TA98, and Escherichia coli WP2 uvrA strains were used for the test. The test was conducted by plate incorporation method as to both cases where metabolic activation was not conducted, or conducted. The dosages were set at six levels as 0, 10, 50, 100, 500 and 1,000 μg/well.
To the minimum glucose-agar medium formed on a 6-well plate, 0.02 mL of a test compound solution or a solvent, 0.1 mL of 0.1 M sodium-phosphate buffer (pH=7.4), 0.025 mL of the bacterial suspension and 0.5 mL of soft agar solution were added per well and mixed. Where metabolic activation was conducted, 0.1M sodium-phosphate buffer (pH=7.4) was replaced with 0.1 mL of Rat Liver S9mix. After the soft agar solution solidified, the bacterial strains were cultured at 37° C. for 48 hours. At the end of the culture the number of revertant colonies on the plate was visually counted using a colony counter. Reverse mutation inducing activity of each of the test compounds was judged to be positive where the number of the revertant colonies increased by twice or more than that in the solvent-added control well, and judged negative where the increase was equivalent to the control. […]

[2] = test system: Chinese hamster lung fibroblast cells (CHL/IU cells); experiment: In vitro micronucleus cell induction test; assay type: cell-based
Experimental: (5) In vitro Micronucleus Cell Induction Test for Examining Genetic Toxicity: Presence of micronucleited cell-inducing activity of the test compounds on cultured cells due to chromosome aberration was examined by in vitro micronucleus test (mutagenesis test, 3, 238-245) by Lab-Tek method. The test was conducted by continuous treatment method, using Chinese hamster lung fibroblast cells (CHL/IU cells). The test compound concentration was set at three levels: 50% proliferation inhibitory concentration (IC50), and at the concentration levels attained by diluting it by common ratio one time and two times. […] One (1) mL of 0.075 M aqueous potassium chloride solution was added and a 5 minutes' hypotonic treatment was conducted at room temperature. After termination of the hypotonic treatment, the cells were fixed with a fixative (methanol: acetic acid=99:1). The slide detached from the chamber was stained with an aqueous […] orange solution (40 μg/mL). […] In the case wherein the micronucleited cells increased by a rate twice or more than that in the control well to which the solvent only had been added, the micronucleited cell induction activity was judged positive, and in the case wherein the increase rate was equivalent to that of the control, negative. The test results were as shown in the following Table 4, concurrently with the results of the test (4).

N#Cc1cc(OS(N)(=O)=O)ccc1N1CCN(CCCC2CCCCC2)CC1 [Example 13, 3-cyano-4-[4-(3-cyclohexylpropyl)piperazin-1-yl]-phenyl-O-sulfamate]
Miniscreen method (reverse mutation inducing activity) [1]: negative
In vitro micronucleited cell induction test [2]: negative
